According to PMC5025651, “Reprofiled anthelmintics abate hypervirulent stationary-phase Clostridium difficile” (Scientific Reports, 2016):
In brackets after ≈: the same amount, converted by molar mass. Each block holds one compound with its values, some of them ahead of it.

Legend:
P. distasonis ATCC 8503 = test: MIC by broth microdilution; assay type: cell-based; details: Parabacteroides distasonis, ATCC8503; P. distasonis ATCC 8503; supplemented Brucella broth, anaerobic; duplicate; read-out: MIC
[1] = tested on: L. reuteri Strain CF48-3A; test: MIC by broth microdilution; assay type: cell-based, Lactobacillus reuteri; details: Limosilactobacillus reuteri; L. reuteri CF48-3A; CAMHB with 5% laked horse blood, ~48 h; duplicate; read-out: MIC
P. nigrescens ATCC 33563 = test: MIC by broth microdilution; assay type: cell-based; details: Prevotella nigrescens, ATCC33563; P. nigrescens ATCC 33563; supplemented Brucella broth, anaerobic; duplicate; read-out: MIC
S. aureus RN4220 = test: MIC by broth microdilution; assay type: cell-based; details: Staphylococcus aureus, CAMHB, aerobic, duplicate
[2] = tested on: B. thetaiotaomicron ATCC 29148; test: microbe, parasite or virus in culture; assay type: cell-based; details: Bacteroides thetaiotaomicron, ATCC29148; B. thetaiotaomicron ATCC 29148; supplemented Brucella broth, anaerobic; duplicate; read-out: MIC
[3] = tested on: L. johnsonii Strain 135-1-CHN; test: MIC by broth microdilution; assay type: cell-based; details: Lactobacillus johnsonii, STRAIN1351CHN; L. johnsonii 135-1-CHN; CAMHB with 5% laked horse blood, ~48 h; duplicate; read-out: MIC
[4] = tested on: panel of obligate aerobes, facultative anaerobes and obligate anaerobes; test: Antibacterial spectrum, MIC against a panel of bacteria; assay type: cell-based; details: whole panel of Table S3
S. epidermidis 1457 = test: MIC by broth microdilution; assay type: cell-based; details: Staphylococcus epidermidis; S. epidermidis 1457; CAMHB, aerobic; duplicate; read-out: MIC
[5] = tested on: B. fragilis Strain CL05T00C42; test: MIC by broth microdilution; assay type: cell-based; details: Bacteroides fragilis; B. fragilis CL05T00C42; supplemented Brucella broth, anaerobic; duplicate; read-out: MIC
[6] = tested on: C. difficile strain 630 (CD630, ATCC BAA-1382-FZ, ribotype 012); test: MIC by broth microdilution; assay type: cell-based, Clostridium difficile
L. plantarum ATCC 8014 = test: MIC by broth microdilution; assay type: cell-based; details: Lactiplantibacillus plantarum, ATCC8014; L. plantarum ATCC 8014; CAMHB with 5% laked horse blood, ~48 h; duplicate; read-out: MIC
P. aeruginosa PAO1 = test: MIC by broth microdilution; assay type: cell-based; details: Pseudomonas aeruginosa; P. aeruginosa PAO1; CAMHB, aerobic; duplicate; read-out: MIC
B. subtilis ATCC 6051 = test: MIC by broth microdilution; assay type: cell-based; details: Bacillus subtilis, ATCC6051; B. subtilis ATCC 6051; CAMHB, aerobic; duplicate; read-out: MIC
[7] = tested on: C. clostridioforme ATCC 25537; test: MIC by broth microdilution; assay type: cell-based, Clostridium clostridioforme; details: Clostridium, ATCC25537; C. clostridioforme ATCC 25537; BHIS, anaerobic; duplicate; read-out: MIC
[8] = tested on: C. difficile strain 4118 (CD4118, ATCC BAA-1870, ribotype 027); test: MIC by broth microdilution; assay type: cell-based, Clostridium difficile
A. baumannii M2 = test: MIC by broth microdilution; assay type: cell-based; details: Acinetobacter baumannii; A. baumannii M2; CAMHB, aerobic; duplicate; read-out: MIC
[9] = tested on: B. breve Strain EX336960VC19; test: MIC by broth microdilution; assay type: cell-based; details: Bifidobacterium breve; B. breve EX336960VC19; LSM broth, anaerobic; duplicate; read-out: MIC
[10] = tested on: B. longum subsp. longum Strain 44B; test: MIC by broth microdilution; assay type: cell-based; details: Bifidobacterium longum; B. longum subsp. longum 44B; LSM broth, anaerobic; duplicate; read-out: MIC
C. sporogenes ATCC 15579 = test: MIC by broth microdilution; assay type: cell-based; details: Clostridium sporogenes, ATCC15579, BHIS, anaerobic, duplicate
[11] = tested on: C. difficile isolate 20100584 (ribotype 014); test: MIC by broth microdilution; assay type: cell-based, Clostridium difficile; details: Clostridioides difficile; isolate 20100584, ribotype 014; duplicate; read-out: MIC
[12] = tested on: C. difficile isolate 20121190 (ribotype 126); test: MIC by broth microdilution; assay type: cell-based, Clostridium difficile; details: Clostridioides difficile; isolate 20121190, ribotype 126; duplicate; read-out: MIC
[13] = tested on: C. difficile isolate 20100422 (ribotype 054); test: MIC by broth microdilution; assay type: cell-based, Clostridium difficile; details: Clostridioides difficile; isolate 20100422, ribotype 054; duplicate; read-out: MIC
[14] = tested on: C. difficile isolate 20121412 (ribotype 047); test: MIC by broth microdilution; assay type: cell-based, Clostridium difficile; details: Clostridioides difficile; isolate 20121412, ribotype 047; duplicate; read-out: MIC
Hemolysis assay = assay type: cell-based; details: sheep, sheep red blood cells (3% suspension), pH 7.4; 32 µg/mL, 1 h, 37 °C; 1% Triton X-100 positive control; triplicate; read-out: Hemolysis (%)
Description: Sheep red blood cells (Innovative Research, Novi, MI, USA) were washed three times with PBS pH 7.4. A 3% cell suspension in PBS (100 μL) was added to test compounds in PBS (100 μL, to a final concentration of 32 μg/mL), and then incubated at 37 °C for 1 h. The plate was centrifuged at 500 × g for 10 min, and supernatants (100 μL) were transferred to a clean 96-well plate. Hemolysis was determined by measuring absorbance at 540 nm, with 1% Triton X-100 as the positive control and 0.5% DMSO in PBS as the negative control. Hemolysis assays were performed in triplicate.

[15] = tested on: C. difficile isolate 20110986 (ribotype 078); test: MIC by broth microdilution; assay type: cell-based, Clostridium difficile; details: Clostridioides difficile; isolate 20110986, ribotype 078; duplicate; read-out: MIC
16 C. difficile isolates = test: MIC by broth microdilution, summary over 16 C. difficile isolates; assay type: cell-based, Clostridium difficile; details: n = 2; for MIC50 / MIC90: Clostridioides difficile; for MIC50: MIC at which 50% of the 16 isolates are inhibited, read-out: MIC50; for MIC90: MIC at which 90% of the 16 isolates are inhibited, read-out: MIC90; for MIC Range: range over 16 C. difficile isolates
[16] = tested on: C. difficile isolate 20110961 (ribotype A12); test: MIC by broth microdilution; assay type: cell-based, Clostridium difficile; details: Clostridioides difficile; isolate 20110961, ribotype A12; duplicate; read-out: MIC
[17] = tested on: C. difficile isolate 20110960 (ribotype 017); test: MIC by broth microdilution; assay type: cell-based, Clostridium difficile; details: Clostridioides difficile; isolate 20110960, ribotype 017; duplicate; read-out: MIC
[18] = tested on: C. difficile isolate 20120016 (ribotype 019); test: MIC by broth microdilution; assay type: cell-based, Clostridium difficile; details: Clostridioides difficile; isolate 20120016, ribotype 019; duplicate; read-out: MIC
[19] = tested on: C. difficile isolate 20110740 (ribotype 018); test: MIC by broth microdilution; assay type: cell-based, Clostridium difficile; details: Clostridioides difficile; isolate 20110740, ribotype 018; duplicate; read-out: MIC
[20] = tested on: C. difficile isolate 20110742 (ribotype 002); test: MIC by broth microdilution; assay type: cell-based, Clostridium difficile; details: Clostridioides difficile; isolate 20110742, ribotype 002; duplicate; read-out: MIC
[21] = tested on: C. difficile isolate 20110566 (ribotype 020); test: MIC by broth microdilution; assay type: cell-based, Clostridium difficile; details: Clostridioides difficile; isolate 20110566, ribotype 020; duplicate; read-out: MIC
[22] = tested on: C. difficile isolate 20110973 (ribotype 106); test: MIC by broth microdilution; assay type: cell-based, Clostridium difficile; details: Clostridioides difficile; isolate 20110973, ribotype 106; duplicate; read-out: MIC
[23] = tested on: C. difficile isolate 20110869 (ribotype 001_072); test: MIC by broth microdilution; assay type: cell-based, Clostridium difficile; details: Clostridioides difficile; isolate 20110869, ribotype 001_072; duplicate; read-out: MIC
[24] = tested on: C. difficile isolate 20111163 (ribotype 024); test: MIC by broth microdilution; assay type: cell-based, Clostridium difficile; details: Clostridioides difficile; isolate 20111163, ribotype 024; duplicate; read-out: MIC

Compound: O=C(Nc1ccc(Oc2ccc(Cl)cc2)cc1)c1cc(I)cc(I)c1 [Compound 5i]
MIC (P. distasonis ATCC 8503): > 32 µg/mL | MIC [1]: > 32 µg/mL | MIC (P. nigrescens ATCC 33563): > 32 µg/mL | MIC (S. aureus RN4220): > 32 µg/mL | MIC [2]: > 32 µg/mL | MIC [3]: > 32 µg/mL | antibacterial activity (in words) [4]: lacked antibacterial activity | MIC (S. epidermidis 1457): > 32 µg/mL | MIC [5]: > 32 µg/mL | MIC ([6]; Clostridioides difficile, ATCCBAA1382, BHIS broth, anaerobic, 20–24 h, n = 2): > 32 µg/mL | in vitro activity against CD630 (in words) ([6]; growth inhibition, MIC assay): inactive | MIC (L. plantarum ATCC 8014): > 32 µg/mL | MIC (P. aeruginosa PAO1): > 32 µg/mL | MIC (B. subtilis ATCC 6051): > 32 µg/mL | MIC [7]: > 32 µg/mL | MIC ([8]; Clostridioides difficile, ATCCBAA1870, BHIS broth, anaerobic, 20–24 h, n = 2, read-out: MIC C. difficile 4118): > 32 µg/mL | in vitro activity against CD4118 (in words) ([8]; growth inhibition, MIC assay): inactive | MIC (A. baumannii M2): > 32 µg/mL | MIC [9]: > 32 µg/mL | MIC [10]: > 32 µg/mL | MIC (C. sporogenes ATCC 15579): > 32 µg/mL

Compound: O=C(Nc1ccc([N+](=O)[O-])cc1Cl)c1cc(Cl)ccc1O [Niclosamide, niclosamide]
MIC [11]: 0.5 µg/mL (≈ 1.53 µM) | MIC [12]: 0.5 µg/mL (≈ 1.53 µM) | MIC [13]: 0.5 µg/mL (≈ 1.53 µM) | MIC [14]: 1 µg/mL (≈ 3.06 µM) | hemolysis at 1 h, 32 µg/mL (Hemolysis assay): < 1% | MIC [15]: 1 µg/mL (≈ 3.06 µM) | MIC50 (16 C. difficile isolates): 1 µg/mL (≈ 3.06 µM) | MIC90 (16 C. difficile isolates): 2 µg/mL (≈ 6.11 µM) | MIC Range (16 C. difficile isolates): 0.5 to 4 µg/mL | MIC [16]: 1 µg/mL (≈ 3.06 µM) | MIC [17]: 1 µg/mL (≈ 3.06 µM) | MIC [18]: 0.5 µg/mL (≈ 1.53 µM) | MIC [19]: 1 µg/mL (≈ 3.06 µM) | MIC [20]: 1 µg/mL (≈ 3.06 µM) | MIC [21]: 1 µg/mL (≈ 3.06 µM) | MIC [22]: 1 µg/mL (≈ 3.06 µM) | MIC [23]: 2 µg/mL (≈ 6.11 µM) | MIC [24]: 1 µg/mL (≈ 3.06 µM)

MIC [11]: 1 µg/mL (≈ 2.49 µM) | MIC [12]: 1 µg/mL (≈ 2.49 µM) | MIC [13]: 1 µg/mL (≈ 2.49 µM) | MIC [14]: 2 µg/mL (≈ 4.98 µM) | MIC [15]: 1 µg/mL (≈ 2.49 µM) | MIC50 (16 C. difficile isolates): 1 µg/mL (≈ 2.49 µM) | MIC90 (16 C. difficile isolates): 1 µg/mL (≈ 2.49 µM) | MIC Range (16 C. difficile isolates): 0.5 to 2 µg/mL | MIC [16]: 1 µg/mL (≈ 2.49 µM) | MIC [17]: 0.5 µg/mL (≈ 1.25 µM) | MIC [18]: 0.5 µg/mL (≈ 1.25 µM) | MIC [19]: 1 µg/mL (≈ 2.49 µM) | MIC [20]: 1 µg/mL (≈ 2.49 µM) | MIC [21]: 1 µg/mL (≈ 2.49 µM) | MIC [22]: 1 µg/mL (≈ 2.49 µM) | MIC [23]: 0.5 to 1 µg/mL (≈ 1.25 to 2.49 µM) | MIC [24]: 0.5 µg/mL (≈ 1.25 µM)
Compound: O=C(Nc1cc(Cl)cc(Cl)c1O)c1c(O)c(Cl)cc(Cl)c1Cl [Oxyclozanide, oxyclozanide]
hemolysis at 1 h, 32 µg/mL (Hemolysis assay): < 1%
